Reference: patent publication US20220218670A1, “METHODS OF TREATING DISEASES CHARACTERISED BY VASOCONSTRICTION” (Gesynta Pharma AB, priority 2016, published 2022)

What was measured:
Format in all cases: in vivo
Agxt2 = experiment: Gene expression in renal medulla (TaqMan), gene for degradation of ADMA; details: wild-type mice, parecoxib 100 mg/kg in drinking water for 5 days, FIG. 3
Method: (§1) Experiments were performed on male and female mPGES-1^−/− and their wild-type mPGES-1^+/+ littermate mice at 6-8 weeks of age. […] All mice were housed with a 12 h light/dark cycle in a climate-controlled environment, and were fed with standard rodent chow with water ad libitum. All mice experiments were conducted in line with EU directive 2010/63/EU and according to guidelines from the Swedish Veterinary board the Guide for the Care and Use of Laboratory Animals published by the US National Institutes of Health (NIH Publication No. 85-23, revised 1996). […]
(§2) RNA was isolated from renal medulla homogenates using a magnetic silica-bead isolation kit (Life Technologies, UK) and converted to cDNA using reverse transcriptase (Thermo Fisher Scientific, UK) with oligo(dT) primers (Life Technologies, UK). Gene expression levels were determined using TaqMan hydrolysis probes (Life Technologies, UK) recognising Prmt1 (probe ID: Mm00480133_m1 or Agxt2 (probe ID: Mm01304088_m1). Data were normalised to expression of the housekeeping genes 18S (probe ID: Mm03928990_g1) and Gapdh (probe ID: Mm99999915_g1) and relative expression compared using the comparative Ct method.

ADMA = experiment: Circulating ADMA in plasma by immunoassay after COX-2 inhibition in mice; details: wild-type mice; parecoxib 100 mg/kg in drinking water for 5 days; FIG. 1
Method: Experiments were performed on male and female mPGES-1^−/− and their wild-type mPGES-1^+/+ littermate mice at 6-8 weeks of age. […] All mice were housed with a 12 h light/dark cycle in a climate-controlled environment, and were fed with standard rodent chow with water ad libitum. All mice experiments were conducted in line with EU directive 2010/63/EU and according to guidelines from the Swedish Veterinary board the Guide for the Care and Use of Laboratory Animals published by the US National Institutes of Health (NIH Publication No. 85-23, revised 1996). Studies were sanctioned by the Karolinska Institute ethics committee (dnr. N86_13 and N364_11), the Shantou University Institutional Animal Research and Use Committee and/or the Imperial College London Ethical Review Panel (PPL 70/7013 and 70/8422). Where indicated, wild-type (mPGES-1^+/+) mice were treated with the selective COX-2 inhibitor, parecoxib (100 mg/kg; Pfizer, USA) added to their drinking water for 5 days prior to tissue collection as we have done before (see Ahmetaj-Shala, B. et al., Circulation, 131, 633-642 (2015)).
Plasma was separated by centrifugation for the following circulating mediators measured by immunoassay: ADMA (DLD Diagnostika, Germany), PGE2 (Cisbio Bioassays, France).

Prmt1 = experiment: Gene expression in renal medulla (TaqMan), gene for synthesis of ADMA; details: wild-type mice, parecoxib 100 mg/kg in drinking water for 5 days, FIG. 2
Method: as §1, §2

CCC(=O)NS(=O)(=O)c1ccc(-c2c(-c3ccccc3)noc2C)cc1 [parecoxib]
expression of genes responsible for degradation of ADMA (Agxt2) (Agxt2): increased expression of genes responsible for degradation of ADMA (Agxt2)
plasma levels of ADMA (ADMA): increased levels of ADMA
expression of genes responsible for synthesis of ADMA (Prmt1) (Prmt1): increased expression of genes responsible for synthesis of ADMA (Prmt1)
